The test system of one experiment is tau. Nature of the experiment: Tau phosphorylation in human postmortem frontal cortex slices. The format is cell-based. As to conditions: 1 or 10 nM compound. As to the method: As will be seen from examination of FIG. 3 and FIG. 4, the ratio of TLR2 to FLNA increased with administration of each of LTA-SA, PGN-SA and Ab42 at a statistically significant amount relative to the control (p<0.01). Those changes in expression of TLR2 relative to FLNA were each inhibited by the presence of the 1 or 10 nM Compound C0105 at a statistically significant amount relative to the control (p<0.01) and relative to the ligand used. See, FIG. 3B.
A slight inhibition (about 25% or less) of that enhanced tau phosphorylation was provided by contacting the cells with 1 or 10 nM Compound C0105. […] See, FIGS. 4A and 4B.
The levels of phosphorylated tau (pSer202tau, pThr231tau and pThr181tau) as well as total tau precipitated (loading controls) are assessed by Western blotting using specific antibodies directed against each of the phosphor-epitopes and the anti-tau, respectively.

Another experiment deals with T1, FLNA (Mus musculus, UniProt Q8BTM8).
T1 construct: pI of FLNA from the brains of naïve mice; from tissue; host or cells: mouse brain (in vivo treated animals)
T1 sequence (Q8BTM8 whole entry): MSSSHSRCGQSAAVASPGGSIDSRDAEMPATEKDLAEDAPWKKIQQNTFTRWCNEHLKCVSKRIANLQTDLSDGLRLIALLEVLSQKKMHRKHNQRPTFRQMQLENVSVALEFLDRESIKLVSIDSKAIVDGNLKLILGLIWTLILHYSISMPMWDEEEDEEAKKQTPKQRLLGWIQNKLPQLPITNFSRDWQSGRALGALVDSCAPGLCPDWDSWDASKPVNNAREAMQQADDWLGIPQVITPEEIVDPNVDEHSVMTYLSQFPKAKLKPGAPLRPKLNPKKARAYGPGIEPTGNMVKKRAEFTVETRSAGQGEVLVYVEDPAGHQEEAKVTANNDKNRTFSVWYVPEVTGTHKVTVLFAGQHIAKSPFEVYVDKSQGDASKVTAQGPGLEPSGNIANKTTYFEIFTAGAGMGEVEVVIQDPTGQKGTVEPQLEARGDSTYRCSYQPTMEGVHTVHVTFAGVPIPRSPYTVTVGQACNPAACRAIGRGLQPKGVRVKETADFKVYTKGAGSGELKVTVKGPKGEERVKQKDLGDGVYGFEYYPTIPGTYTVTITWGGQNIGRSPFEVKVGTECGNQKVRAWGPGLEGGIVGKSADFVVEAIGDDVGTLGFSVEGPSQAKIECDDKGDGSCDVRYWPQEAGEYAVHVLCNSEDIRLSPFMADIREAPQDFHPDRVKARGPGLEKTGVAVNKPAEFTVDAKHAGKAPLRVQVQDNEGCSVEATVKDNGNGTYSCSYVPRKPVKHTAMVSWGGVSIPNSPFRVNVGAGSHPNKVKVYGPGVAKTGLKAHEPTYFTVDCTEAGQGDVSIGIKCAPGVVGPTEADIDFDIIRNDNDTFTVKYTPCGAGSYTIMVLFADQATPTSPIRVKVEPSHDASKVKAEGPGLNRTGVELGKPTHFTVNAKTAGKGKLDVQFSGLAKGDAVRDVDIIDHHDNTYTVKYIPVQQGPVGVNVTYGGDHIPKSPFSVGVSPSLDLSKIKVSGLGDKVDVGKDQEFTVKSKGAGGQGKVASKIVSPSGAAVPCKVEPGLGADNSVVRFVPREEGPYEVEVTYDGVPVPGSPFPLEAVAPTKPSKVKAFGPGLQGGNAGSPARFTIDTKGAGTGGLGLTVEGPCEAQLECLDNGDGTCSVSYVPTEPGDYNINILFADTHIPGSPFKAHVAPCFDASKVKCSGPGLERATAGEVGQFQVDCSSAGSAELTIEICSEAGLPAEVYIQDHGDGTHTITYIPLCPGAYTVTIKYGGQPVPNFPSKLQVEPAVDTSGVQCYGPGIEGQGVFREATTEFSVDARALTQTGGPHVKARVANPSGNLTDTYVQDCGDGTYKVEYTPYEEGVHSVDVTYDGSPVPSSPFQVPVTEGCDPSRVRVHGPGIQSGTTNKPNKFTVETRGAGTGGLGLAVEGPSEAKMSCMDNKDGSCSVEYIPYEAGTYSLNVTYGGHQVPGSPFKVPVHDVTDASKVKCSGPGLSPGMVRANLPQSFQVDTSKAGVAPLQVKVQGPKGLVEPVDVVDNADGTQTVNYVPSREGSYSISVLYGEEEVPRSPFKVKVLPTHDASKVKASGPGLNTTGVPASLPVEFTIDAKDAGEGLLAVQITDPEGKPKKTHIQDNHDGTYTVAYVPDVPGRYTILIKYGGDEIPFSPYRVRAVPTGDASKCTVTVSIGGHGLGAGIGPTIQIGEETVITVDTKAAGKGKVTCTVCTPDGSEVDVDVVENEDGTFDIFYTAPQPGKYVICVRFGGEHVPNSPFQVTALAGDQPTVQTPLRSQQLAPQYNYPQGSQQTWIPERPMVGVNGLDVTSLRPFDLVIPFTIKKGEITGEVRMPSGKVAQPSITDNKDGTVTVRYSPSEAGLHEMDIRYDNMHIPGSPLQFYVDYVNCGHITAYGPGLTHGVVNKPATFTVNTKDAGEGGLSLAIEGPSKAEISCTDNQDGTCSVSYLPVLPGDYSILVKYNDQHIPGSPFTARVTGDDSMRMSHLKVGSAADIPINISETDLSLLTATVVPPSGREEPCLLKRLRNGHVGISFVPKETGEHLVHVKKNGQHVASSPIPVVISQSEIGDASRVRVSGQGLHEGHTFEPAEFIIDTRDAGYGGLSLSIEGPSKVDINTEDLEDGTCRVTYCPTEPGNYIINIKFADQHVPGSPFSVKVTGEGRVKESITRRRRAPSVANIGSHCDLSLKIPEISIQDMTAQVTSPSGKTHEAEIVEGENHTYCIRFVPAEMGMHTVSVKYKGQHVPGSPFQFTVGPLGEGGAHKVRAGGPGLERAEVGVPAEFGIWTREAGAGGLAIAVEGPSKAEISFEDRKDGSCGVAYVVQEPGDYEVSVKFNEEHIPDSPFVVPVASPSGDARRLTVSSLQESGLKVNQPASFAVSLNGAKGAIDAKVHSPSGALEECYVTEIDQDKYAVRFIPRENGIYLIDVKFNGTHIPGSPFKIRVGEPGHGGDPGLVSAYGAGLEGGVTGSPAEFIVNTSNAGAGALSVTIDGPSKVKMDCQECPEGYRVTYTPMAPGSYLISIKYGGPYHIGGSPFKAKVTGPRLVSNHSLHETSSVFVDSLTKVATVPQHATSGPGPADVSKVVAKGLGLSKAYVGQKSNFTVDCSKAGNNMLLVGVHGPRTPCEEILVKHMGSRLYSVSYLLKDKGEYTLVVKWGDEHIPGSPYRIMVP
As to conditions: 20-22 mg/kg in vivo; Ab42-infused, 3xTg AD and aged wild-type mice (untreated 5.3); Wang et al. 2017; cited from earlier work.

Experiment [1] deals with human astrocyte TLR2 receptors. The experiment is described as follows: Release of pro-inflammatory cytokines from primary human astrocytes. The format is cell-based. As to the method: A primary astrocyte culture was prepared according to the provider (Lonza). The adherent astrocytes were trypsinized by 0.25% trypsin-EDTA, then collected and sub-cultured in 12-well plate (1.2 ml/well). When the cells were 80-85% confluent, cells were treated in an incubator under 5% CO2 with 100 fM, 10 pM or 1 nM Compound C0105 immediately followed by the addition of Ab42 ([…]), LPS (1 mg/ml), LTA-SA (1 mg/ml) and PGN-SA (10 mg/ml); i.e., simultaneously adding the insulting ligand and Compound C0105 to the cells. Vehicle groups were treated with 0.1% DMSO only. Incubation continued for 24 hours post addition. Culture medium was used as the blank (non-treat) and the levels of cytokines, TNF-a, IL-6 and IL-1b in 200 ml of culture medium were determined. Each well was sampled once.
Plates were washed 3 times with ice-cold 50 mM Tris HCl (pH 7.4) and incubated at 30° C. with 200 ml medium derived from the above-mentioned conditions. […] Plates were washed twice with 200 ml ice-cold Tris HCl, pH 7.4 and the residual FITC signals were determined by multimode plate reader, DTX880 (Beckman).
A primary astrocyte culture was prepared according to the provider (Lonza). […] Culture medium was used as the blank (non-treat) and the levels of cytokines, TNF-a, IL-6 and IL-1b in 200 ml of culture medium were determined. […]

SMILES strings stand for the structures. Where only a bound is given, the exact number is not on record here.

`CN1CCC2(CC1)NCC(=O)N2Cc1ccccc1` [Compound C0105M]: the “Inhibition of LTA-SA- or PGN-SA-enhanced tau phosphorylation” value with tau is reported as ≤ 25%. Further, the “Ab42-induced tau phosphorylation (in words)” value in the experiment with tau (0.1 micromolar Ab42) is given as “statistically significant reduction”. On FLNA, the “pI of FLNA from brain after treatment” value is 5.9. Besides, the “Ab42-induced inflammatory cytokine production (in words)” value in experiment [1] (Ab42 exposure) is “nearly abolishes this cytokine production”. In experiment [1] (LTA-SA or PGN-SA insult, human astrocytes), the “Release of the three pro-inflammatory cytokines (in words)” value is reported as “substantially inhibited the release”.

The values above are taken from patent US20220233512A1, “INHIBITING AN IMMUNE RESPONSE MEDIATED BY ONE OR MORE OF TLR2, RAGE, CCR5, CXCR4 AND CD4” (priority 2020, published 2022).
